Data published in paper PMC5430874 (Scientific Reports, 2017).
Changes are numbered by the printed parent chain.

Legend:
Assay type in all cases: cell-based
[1] = target: T1, GPR139 L87F2x64 (Homo sapiens, UniProt Q6DWJ6, L87F); assay: Fluo-4 Ca2+-assay, GPR139 mutant L87F
T1 construct: mGluR5 signal peptide (N); expressed in transfected cells; host or cells: HEK293
T1 sequence (Q6DWJ6 2-353 L87F limits assumed): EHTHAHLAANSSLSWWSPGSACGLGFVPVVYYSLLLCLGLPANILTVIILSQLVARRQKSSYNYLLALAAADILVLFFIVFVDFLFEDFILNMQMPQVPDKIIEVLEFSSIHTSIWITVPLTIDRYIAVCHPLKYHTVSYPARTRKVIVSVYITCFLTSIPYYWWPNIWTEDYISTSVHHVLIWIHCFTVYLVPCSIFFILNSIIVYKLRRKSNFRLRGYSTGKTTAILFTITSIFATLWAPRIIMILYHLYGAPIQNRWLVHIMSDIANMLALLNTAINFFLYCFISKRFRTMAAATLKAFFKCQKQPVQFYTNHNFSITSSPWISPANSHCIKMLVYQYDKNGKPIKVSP
Text: (§1) To study the influence of specific amino acids in the predicted binding pocket on receptor function, the desired mutations were introduced into an N-terminally c-myc-tagged wild type human GPR139 (NM_001002911.3) in the pEGFP-N1 vector (BD Biosciences)[32], [33]. As previously described, these plasmids carry the signal peptide of mGluR5 to promote cell surface expression followed by a c-myc epitope to enable detection of total and surface expression by ELISA, followed by an engineered MluI and NotI site for easy insertion of the receptor of interest. Furthermore, the start-codon in the GPR139 sequence was deleted to ensure c-myc-tagging. […]
(§2) The Ca^2+ measurements were preformed using the Fluo-4 NW Calcium Assay Kit (Invitrogen, Molecular Probes, F36206) as previously described. […] Intracellular calcium changes were recorded as indicated on either a NOVOstar (BMG Labtech) at 37 °C with an excitation filter of 485 nm and an emission filters 520 nm or a FlexStation 3 Benchtop Multi-Mode Microplate Reader (Molecular Devices) at 37 °C with an excitation wavelength of 485 nm and emission of 525 nm.
(§3) All pharmacological data have been analyzed by using Prism 6.0 (GraphPad Software Inc., San Diego). […] Changes in potency (pEC50) and span of myc-GPR139(WT) in comparison to untagged GPR139(WT) was statistically analyzed with a paired t-test and significance was accepted at p < 0.05. […]

[2] = target: T2, GPR139 E105Q3x29 (Homo sapiens, UniProt Q6DWJ6, E105Q); assay: Fluo-4 Ca2+-assay, GPR139 mutant E105Q
T2 construct: mGluR5 signal peptide (N); expressed in transfected cells; host or cells: HEK293
T2 sequence (Q6DWJ6 2-353 E105Q limits assumed): T1 sequence (Q6DWJ6 2-353 L87F limits assumed) with F86L, E104Q
Text: as §1, §2, §3

[3] = target: T3, GPR139 H113A3x37 (Homo sapiens, UniProt Q6DWJ6, H113A); assay: Fluo-4 Ca2+-assay, GPR139 mutant H113A
T3 construct: mGluR5 signal peptide (N); expressed in transfected cells; host or cells: HEK293
T3 sequence (Q6DWJ6 2-353 H113A limits assumed): T1 sequence (Q6DWJ6 2-353 L87F limits assumed) with F86L, H112A
Text: as §1, §2, §3

EC50 ([1]; L87F mutant): 427 nM | Emax ([1]; L87F, normalized to buffer (0%) and 8 µM 1a (100%)): 97 ± 14% | EC50 ([2]; E105Q mutant): 145 nM | Emax ([2]; E105Q, normalized to buffer (0%) and 8 µM 1a (100%)): 177 ± 36% | EC50 ([3]; H113A mutant): 851 nM | Emax ([3]; H113A, normalized to buffer (0%) and 8 µM 1a (100%)): 97 ± 9%
Compound: COc1cc(OC)cc(C(=O)NNC(=O)Nc2cccc3ccccc23)c1 [Compound 1a]
